Measurements from patent publication US20260355239A1, “COMBINATION OF A T CELL THERAPY AND CONTINUOUS OR INTERMITTENT DGK INHIBITOR DOSING” (Juno Therapeutics, Inc., priority 2022, published 2026).

Columns and labels:
[1] = tested on: anti-CD19 CAR-T cells with K562.CD19, Granta-519 and Raji cells; assay: CAR-T cell cytokine production in co-culture (MSD); format: cell-based, human
Raji-rFluc cells = assay: In vivo anti-tumor effect with lower CAR T cell dose, Raji-rFluc NSG mice (Example 7)
Experimental: The in vivo anti-tumor effects of a continuous Compound 17 dosing regimen in combination with a lower dose of CD19-directed CAR T cells were assessed.
These doses of CAR-expressing T cells were not expected to achieve complete tumor rejection.

T cells = assay: T cell function and exhaustion of engineered T cells in presence of DGKi (summary of observations); format: cell-based, human
Source text: In some aspects, the provided methods enhance or modulate proliferation and/or activity of T cell activity associated with administration of the T cell therapy (e.g. CAR-expressing T cells).
Thus, while in some cases agents that increase or potentiate T cell activity may drive the cells to an exhausted state, it is found herein that activity of such DGKi, e.g., Compound 17, to exert a potentiating effect on T cell activity is decoupled from T cell exhaustion. In some embodiments, the provided methods involving compound administration of such DGKi, e.g., Compound 17, is capable of potentiating activity of T cells and delaying, limiting, reducing, inhibiting or preventing exhaustion.
These observations were made using a chronic stimulation assay to render T cells (e.g. CAR T cells) hypofunctional (e.g. reduced cytolysis and IL-2 secretion). Using this model, engineered T cells (e.g. CAR T cells or eTCR T cells) were examined to assess impact of DGKi, such as Compound 17, on function of the engineered T cells when present during (concurrent) or following (rescue) exposure to conditions leading to a hypofunctional, exhaustive state.

[2] = tested on: anti-CD19 CAR-T cells with K562.CD19, Granta-519 and Raji cells; assay: Cytokine production of chronically stimulated, concurrently treated CAR-T cells, 2D co-culture; format: cell-based, human; details: concurrent treatment during chronic stimulation; 2D re-challenge, 48 h
Experimental: To simulate conditions of chronic stimulation, approximately 20,000 anti-CD19 CAR-expressing T cells of a combined CAR-T cell composition produced as described in Example 2 from two healthy adult donors were incubated with 30 µg/mL of plate-bound CAR-specific anti-idiotypic antibody (see, e.g., WO2018/023100) at 37 °C for a period of seven days. During this seven-day period, engineered CAR T cells were concurrently treated with Compound 17(0.1-1000 nM) or a vehicle control added at day 0.
Stimulated CAR T cells were then re-challenged with CD19-expressing tumor cells or tumor spheroids in the absence of Compound 17, and cytolytic activity and cytokine production were assessed.
To assess cytolytic function, the stimulated CAR-T cell composition was co-cultured with various CD19-expressing lymphoma cells at a 2.5:1 effector:target ratio. The tumor cells were engineered to express NucLight Red (NLR) and tumor cell number was monitored by Incucyte®. […] Duplicate values for cell compositions manufactured from the two different healthy donors are shown.
Supernatant was collected after 48 hours from the above co-cultures of chronically stimulated CAR-expressing T cells and CD19-expressing tumor cells. Cytokine production was measured from the supernatant by meso scale discovery (MSD) analysis of the collected cell supernatants. […]

[3] = tested on: Granta-519 tumor spheroids; assay: Rescue treatment: cytolytic activity of chronically stimulated CAR-T cells, 3D spheroids, Granta-519; format: cell-based, human; details: day 9
[4] = tested on: Raji lymphoma tumor cells; assay: In vivo anti-tumor effect of dosing regimens with anti-CD19 CAR T cells, Raji-rFluc NSG mice (Example 6)
Experimental: The in vivo anti-tumor effects of different dosing regimens for Compound 17 in combination with anti-CD19 CAR T cells were assessed.
Following CAR-T cell administration, mice received one of three different Compound 17 dosing regimens or a vehicle control (n=8 per group). Specifically, mice received Compound 17 or vehicle control once daily (i) on Days 1-14 (“Early”), (ii) on Days 14-42 (“Delayed”), or (iii) on Days 1-28 (“Continuous”) of the combination therapy. All doses of Compound 17 were 0.3 mg/kg and were administered orally. […] Flow cytometry for assessing CD4:CD8 ratio was performed at Day 15.

Granta-519 cells = assay: Rescue treatment: cytolytic activity of chronically stimulated CAR-T cells, 2D, Granta-519; format: cell-based, human; details: higher concentrations, 2D co-culture
[5] = 0.3 or 0.6 mg/kg oral once daily Days 1-30 with 0.5×10^6 or 1×10^6 CAR T cells, vs CAR T cells alone
[6] = 0.3 mg/kg oral once daily from Day 1, relative to vehicle

SMILES: CC[C@H]1CN([C@@H](CC)c2ccc(C(F)(F)F)cc2)[C@H](CC)CN1c1nc(=O)n(C)c2ccc(C#N)nc12 [Compound 17, 4-((2S,5R)-2,5-diethyl-4-((S)-1-(4-(trifluoromethyl)phenyl)propyl)piperazin-1-yl)-1-methyl-2-oxo-1,2-dihydropyrido[3,2-d]pyrimidine-6-carbonitrile]
- production of IFNγ, IL-2 and TNFα ([1]; 48 h co-culture with K562.CD19, Granta-519, Raji): dose-dependent increase in production of all three cytokines
- cytokine production, particularly IL-2, greatest effect ([1]; higher concentrations of Compound 17, Granta-519 cells (low CD19)): greatest effect during co-culture with Granta-519 cells
- CAR T cell expansion and/or persistence (Raji-rFluc cells; 0.3 or 0.6 mg/kg oral once daily Days 1-30, all groups): increased CAR T cell expansion and/or persistence in all groups
- survival (Raji-rFluc cells; [5]): improved survival in all groups
- tumor burden (Raji-rFluc cells; [5]): lowered tumor burden
- tumor suppression (tumor control index) (Raji-rFluc cells; [5]): enhanced tumor suppression in all groups
- CAR T cell expansion, lower CAR T cell dose (Raji-rFluc cells; 0.5×10^6 CAR T cells + 0.3 mg/kg, relative to higher CAR T cell dose in combination with Compound 17): CAR T cell expansion was delayed
- circulating CAR T cell counts, lower CAR T cell dose (Raji-rFluc cells; 0.5×10^6 CAR T cells + 0.3 mg/kg, vs higher CAR T cell dose alone): later exceeded circulating CAR T cell counts for the group that received the higher CAR T cell dose alone
- T cell function (cytokine production, cytotoxicity, expansion, proliferation, persistence) (T cells): improves T cell function
- effect on T cell exhaustion (T cells; chronic (long-term) stimulation): reverse, delay, or prevent T cell exhaustion
- production of IFNγ, IL-2 and TNFα [2]: dose-dependent increase in production of all three cytokines
- cytolytic activity of CAR T cells against Granta-519 spheroids [3]: improved the cytolytic activity of CAR T cells against both A549.CD19 and Granta-519 tumor spheroids
- tumor suppression (tumor control index), Early regimen ([4]; 0.3 mg/kg oral once daily Days 1-14 with CAR T cells, relative to vehicle): enhanced tumor suppression
- survival, Continuous regimen ([4]; 0.3 mg/kg oral once daily Days 1-28 with 1×10^6 CAR T cells): improved survival
- tumor burden, Continuous regimen ([4]; 0.3 mg/kg oral once daily Days 1-28 with CAR T cells): reduced tumor burden
- tumor suppression (tumor control index), Continuous regimen ([4]; 0.3 mg/kg oral once daily Days 1-28 with CAR T cells, relative to vehicle): enhanced tumor suppression
- tumor suppression (tumor control index), Delayed regimen ([4]; 0.3 mg/kg oral once daily Days 14-42 with CAR T cells, relative to vehicle): did not
- CAR T cell expansion, Day 15, Early or Continuous regimen [4, 6]: increased CAR T cell expansion
- CD4:CD8 ratio, Day 15, Early or Continuous regimen [4, 6]: increase in CD4:CD8 ratio
- CAR T cell expansion and CD4:CD8 ratio, Day 15, Delayed regimen ([4]; single 0.3 mg/kg oral dose, relative to vehicle): did not
- cytolytic activity of CAR T cells against Granta-519 cells (Granta-519 cells): improved the cytolytic activity of CAR T cells against K562.CD19 and Granta-519 cells
